Like-named read-outs stand apart in the source and are kept apart here.
How the values were obtained:
Cynodon dactylon = test: Shoot growth, postemergence treatment in the greenhouse (table 26); assay type: in vivo; details: from seed
Method: (§1) Plastic flowerpots having a volume of 300 cm^3 were filled with a sandy loam and the test plants placed therein (either as seed, as vegetatively reproduced species, or as potted plants, e.g., vines). For preemergence treatment, the active ingredients were suspended or emulsified in water as vehicle and sprayed onto the surface of the soil immediately after sowing by means of finely distributing nozzles. The potted vines were treated by spraying them with the correspondingly diluted liquor. For postemergence treatment, the agents were, as stated above, sprayed in water onto the leaves of the test plants, some liquor also falling onto the soil. In some special cases, solid active ingredients were first dissolved in dimethylformamide and then applied in a total liquor amount of 400 liters of water per hectare. For the postemergence treatment, the plants were first grown to a height of from 3 to 10 cm before being treated. With grasses, the first growth was cut, and the new growth treated 2 to 3 days after cutting. The temperature requirements of the plants were taken into account by placing them in cooler or warmer sections of the greenhouse. The experiments were run for from 4 to 6 weeks, during which time the plants were tended and their reaction to the various treatments was assessed.
(§2) The application rates are given in kg/ha of active ingredient, regardless of the method of application and the amount of water used.
(§3) A 0 to 100 scale was used for the evaluation, 0 denoting normal emergence or no damage (or no inhibition), and 100 denoting non-emergence or complete destruction of the plants. A distinction should be made in the influence on growth between desired changes without any appreciable disadvantageous phytotoxic effects (e.g., purely growth-regulating effects) and those of a phytotoxic herbicical character.

Poa pratensis [1] = test: as above; assay type: in vivo
Method: as §1, §2, §3

Hordeum vulgare = test: as above; assay type: in vivo
Method: as §1, §2, §3

Lolium mult. = test: Herbicidal action, pre- and postemergence application in the greenhouse; assay type: in vivo; details: for pest or weed control at 3000 g/ha: Lolium, post-emergence, read-out: % damage
Method: as §1, §2, §3

Viola tric. = test: as above; assay type: in vivo; details: 3.0 kg/ha POST
Method: as §1, §2, §3

Mentha piper. = test: as above; assay type: in vivo; details: post-emergence; 3.0 kg/ha POST; read-out: % damage
Method: as §1, §2, §3

Sinapis alba = test: as above; assay type: in vivo; details: post-emergence, read-out: % damage
Method: as §1, §2, §3

Ipom. spp. = test: as above; assay type: in vivo, Ipomoea spp.; details: Ipomoea, post-emergence; 3.0 kg/ha POST; read-out: % damage
Method: as §1, §2, §3

Cynodon dact. (seed) = test: as above; assay type: in vivo, Cynodon dactylon
Method: as §1, §2, §3

Euph. gen. = test: as above; assay type: in vivo, Euphorbia geniculata
Method: as §1, §2, §3

Arachys hypog. = test: Shoot inhibition, pre- and postemergence treatment (table 28); assay type: in vivo, Arachys hypogaea; details: post-emergence, read-out: % shoot inhibition
Method: as §1, §2, §3

Medicago sativa = test: Inhibition of shoot growth by growth regulators, pre- and postemergence (table 27); assay type: in vivo; details: post-emergence, read-out: shoot growth inhibition (%)
Method: as §1, §2, §3

Euphorbia geniculata [2] = test: as above; assay type: in vivo; details: Euphorbia heterophylla, post-emergence, read-out: shoot growth inhibition (%)
Method: as §1, §2, §3

Poa prat. = test: Shoot inhibition, pre- and postemergence treatment (table 28); assay type: in vivo; details: Poa pratensis, post-emergence, read-out: % shoot inhibition
Method: as §1, §2, §3

Tritic. aestiv. = test: as above; assay type: in vivo; details: post-emergence
Method: as §1, §2, §3

Glycine max = test: as above; assay type: in vivo; details: post-emergence, read-out: % shoot inhibition
Method: as §1, §2, §3

Poa pratensis [3] = test: Growth inhibition in lawns, preemergence treatment in the greenhouse; assay type: in vivo; details: Poa pratensis, pre-emergence, read-out: % growth inhibition after emergence
Method: as §1, §2, §3

Cynodon dactyl. = test: Shoot inhibition, pre- and postemergence treatment (table 28); assay type: in vivo, Cynodon dactylon; details: post-emergence, read-out: % shoot inhibition
Method: as §1, §2, §3

Euphorbia geniculata [4] = test: Shoot growth, postemergence treatment in the greenhouse (table 26); assay type: in vivo
Method: as §1, §2, §3

Euphorbia genic. = test: Shoot inhibition, pre- and postemergence treatment (table 28); assay type: in vivo, Euphorbia geniculata; details: post-emergence, read-out: % shoot inhibition
Method: as §1, §2, §3

Hordeum vulg. = test: as above; assay type: in vivo, Hordeum vulgare; details: post-emergence
Method: as §1, §2, §3

Cyper. esc. = test: Removal and inhibition of unwanted plants, preemergence, greenhouse; assay type: in vivo, Cyperus esculentus
Method: as §1, §2, §3

Solan. nig. = test: as above; assay type: in vivo, Solanum nigrum
Method: as §1, §2, §3

Echin. c.g. = test: as above; assay type: in vivo, Echinochloa crus galli
Method: as §1, §2, §3

Lam. spp. = test: as above; assay type: in vivo
Method: as §1, §2, §3

Setar. spp. = test: as above; assay type: in vivo
Method: as §1, §2, §3

Galium apar. = test: Herbicidal action, pre- and postemergence application in the greenhouse; assay type: in vivo, Galium aparine; details: post-emergence, 3.0 kg/ha POST, read-out: % damage
Method: as §1, §2, §3

[5] = read-out: % shoot inhibition, 1.0 kg/ha POST
[6] = read-out: % shoot inhibition, 1.0 kg/ha PRE
[7] = read-out: % shoot inhibition, 2.0 kg/ha POST
[8] = read-out: % shoot inhibition, 2.0 kg/ha PRE
[9] = 1.0 kg/ha POST, read-out: % shoot inhibition
[10] = 1.0 kg/ha PRE, read-out: % shoot inhibition
[11] = 2.0 kg/ha POST, read-out: % shoot inhibition
[12] = 2.0 kg/ha PRE, read-out: % shoot inhibition

## OC1C2CC(C3N=NC23)C1Nc1ccc(Cl)cc1 (stereo not shown)
Cynodon dactylon; 1.0 kg/ha
  Shoot length: 6 cm
Cynodon dactylon; 2.0 kg/ha
  Shoot length: 6 cm
Poa pratensis [1]; 1.0 kg/ha
  Shoot length: 13 cm
Poa pratensis [1]; 2.0 kg/ha
  Shoot length: 13 cm
Hordeum vulgare; 0.5 kg/ha
  Shoot length: 16 cm
Hordeum vulgare; 1.0 kg/ha
  Shoot length: 15 cm
Hordeum vulgare; 2.0 kg/ha
  Shoot length: 14 cm

## OC1C(O)C2CC1C1N=NC21 (stereo not shown)
Lolium mult.; 3.0 kg/ha POST
  pest or weed control at 3000 g/ha: 95%
Lolium mult.; 3.0 kg/ha PRE
  pest or weed control at 3000 g/ha: 90%
Viola tric.
  % damage: 95%
Mentha piper.
  pest or weed control at 3000 g/ha: 100%
Sinapis alba; 3.0 kg/ha PRE
  pest or weed control at 3000 g/ha: 80%
Ipom. spp.
  pest or weed control at 3000 g/ha: 100%

## ClC1C(Cl)C2CC1C1N=NC21 (stereo not shown)
Lolium mult.; 3.0 kg/ha POST
  % damage: 100%
Lolium mult.
  pest or weed control at 3000 g/ha: 100%
Cynodon dact. (seed); 1.0 kg/ha PRE
  % damage: 90%
Cynodon dact. (seed); 2.0 kg/ha POST
  % damage: 100%
Euph. gen.; 1.0 kg/ha PRE
  % damage: 70%
Euph. gen.; 2.0 kg/ha POST
  % damage: 95%

## C[N+](C)(C)CCCl [[ClCH2CH2N(C⊕H3)3]⊖ Cl, reference compound]
Arachys hypog.
  inhibition at 1000 g/ha: 0%
  inhibition at 2000 g/ha: 0%
Medicago sativa
  inhibition at 500 g/ha: 0%
  inhibition at 1000 g/ha: 0%
  inhibition at 2000 g/ha: 0%
  inhibition at 4000 g/ha: 0%
Euphorbia geniculata [2]
  inhibition at 500 g/ha: 0%
  inhibition at 1000 g/ha: 0%
  inhibition at 2000 g/ha: 0%
  inhibition at 4000 g/ha: 10%
Poa prat.
  inhibition at 1000 g/ha: 0%
  inhibition at 2000 g/ha: 0%
Tritic. aestiv.; [5]
  inhibition at 1000 g/ha: 30%
Tritic. aestiv.; [6]
  inhibition at 1000 g/ha: 20%
Tritic. aestiv.; [7]
  inhibition at 2000 g/ha: 30%
Tritic. aestiv.; [8]
  inhibition at 2000 g/ha: 20%
Glycine max
  inhibition at 1000 g/ha: 0%
  inhibition at 2000 g/ha: 0%
Poa pratensis [3]; 0.5 kg/ha
  inhibition at 500 g/ha: 0%
Poa pratensis [3]; 1.0 kg/ha
  inhibition at 1000 g/ha: 10%
Poa pratensis [3]; 2.0 kg/ha
  inhibition at 2000 g/ha: 10%
Poa pratensis [3]; 4.0 kg/ha
  inhibition at 4000 g/ha: 10%
Cynodon dactyl.
  inhibition at 1000 g/ha: 0%
  inhibition at 2000 g/ha: 0%
Cynodon dactylon; 1.0 kg/ha
  Shoot length: 7 cm
Cynodon dactylon; 2.0 kg/ha
  Shoot length: 7 cm
Poa pratensis [1]; 1.0 kg/ha
  Shoot length: 20 cm
Poa pratensis [1]; 2.0 kg/ha
  Shoot length: 19 cm
Hordeum vulgare; 0.5 kg/ha
  Shoot length: 14 cm
Hordeum vulgare; 1.0 kg/ha
  Shoot length: 14 cm
Hordeum vulgare; 2.0 kg/ha
  Shoot length: 14 cm
Euphorbia geniculata [4]; 0.5 kg/ha
  Shoot length: 12.5 cm
Euphorbia geniculata [4]; 1.0 kg/ha
  Shoot length: 13 cm
Euphorbia geniculata [4]; 2.0 kg/ha
  Shoot length: 13 cm
Euphorbia genic.
  inhibition at 1000 g/ha: 0%
  inhibition at 2000 g/ha: 0%
Hordeum vulg.; [5]
  inhibition at 1000 g/ha: 10%
Hordeum vulg.; [6]
  inhibition at 1000 g/ha: 20%
Hordeum vulg.; [7]
  inhibition at 2000 g/ha: 10%
Hordeum vulg.; [8]
  inhibition at 2000 g/ha: 20%

## BrC1C(Br)C2CC1C1N=NC21 (stereo not shown) [drawing 430]
Cyper. esc.; 2.0 kg/ha PRE
  % damage: 20%
Cyper. esc.; 4.0 kg/ha PRE
  % damage: 55%
Cyper. esc.; 8.0 kg/ha PRE
  % damage: 70%
Solan. nig.; 2.0 kg/ha PRE
  % damage: 95%
Solan. nig.; 4.0 kg/ha PRE
  % damage: 95%
Solan. nig.; 8.0 kg/ha PRE
  % damage: 95%
Echin. c.g.; 2.0 kg/ha PRE
  % damage: 50%
Echin. c.g.; 4.0 kg/ha PRE
  % damage: 80%
Echin. c.g.; 8.0 kg/ha PRE
  % damage: 90%
Lam. spp.; 2.0 kg/ha PRE
  % damage: 95%
Lam. spp.; 4.0 kg/ha PRE
  % damage: 95%
Lam. spp.; 8.0 kg/ha PRE
  % damage: 95%
Setar. spp.; 2.0 kg/ha PRE
  % damage: 100%
Setar. spp.; 4.0 kg/ha PRE
  % damage: 100%
Setar. spp.; 8.0 kg/ha PRE
  % damage: 100%

## c1ccc(C2=NNC3C4CC(C5N=NC45)C23)cc1 (stereo not shown) [drawing 438]
Arachys hypog.; 1.0 kg/ha POST
  inhibition at 1000 g/ha: 20%
Arachys hypog.; 1.0 kg/ha PRE
  inhibition at 1000 g/ha: 10%
Arachys hypog.; 2.0 kg/ha POST
  inhibition at 2000 g/ha: 30%
Arachys hypog.; 2.0 kg/ha PRE
  inhibition at 2000 g/ha: 10%
Poa prat.; 1.0 kg/ha PRE
  inhibition at 1000 g/ha: 60%
Poa prat.; 2.0 kg/ha PRE
  inhibition at 2000 g/ha: 60%
Tritic. aestiv.; [9]
  inhibition at 1000 g/ha: 10%
Tritic. aestiv.; [10]
  inhibition at 1000 g/ha: 30%
Tritic. aestiv.; [11]
  inhibition at 2000 g/ha: 20%
Tritic. aestiv.; [12]
  inhibition at 2000 g/ha: 30%
Glycine max; 1.0 kg/ha PRE
  inhibition at 1000 g/ha: 10%
Glycine max; 2.0 kg/ha PRE
  inhibition at 2000 g/ha: 25%
Cynodon dactyl.; from seed, 1.0 kg/ha POST
  inhibition at 1000 g/ha: 13%
Cynodon dactyl.; from seed, 1.0 kg/ha PRE
  inhibition at 1000 g/ha: 10%
Cynodon dactyl.; from seed, 2.0 kg/ha POST
  inhibition at 2000 g/ha: 25%
Cynodon dactyl.; from seed, 2.0 kg/ha PRE
  inhibition at 2000 g/ha: 10%
Euphorbia genic.; 1.0 kg/ha PRE
  inhibition at 1000 g/ha: 10%
Euphorbia genic.; 2.0 kg/ha PRE
  inhibition at 2000 g/ha: 30%
Hordeum vulg.; [9]
  inhibition at 1000 g/ha: 30%
Hordeum vulg.; [10]
  inhibition at 1000 g/ha: 25%
Hordeum vulg.; [11]
  inhibition at 2000 g/ha: 30%
Hordeum vulg.; [12]
  inhibition at 2000 g/ha: 25%

## BrC1C(Br)C2CC1C1N=NC21 (stereo not shown) [drawing 442]
Lolium mult.; 3.0 kg/ha POST
  pest or weed control at 3000 g/ha: 100%
Lolium mult.; 3.0 kg/ha PRE
  pest or weed control at 3000 g/ha: 40%
Sinapis alba; 3.0 kg/ha POST
  pest or weed control at 3000 g/ha: 100%
Sinapis alba; 3.0 kg/ha PRE
  pest or weed control at 3000 g/ha: 70%
Cynodon dact. (seed); 1.0 kg/ha PRE
  % damage: 100%
Euph. gen.; 1.0 kg/ha PRE
  % damage: 90%

## c1ccc(C2=NOC3C4CC(C5N=NC45)C23)cc1 (stereo not shown) [drawing 453]
Lolium mult.; 3.0 kg/ha POST
  pest or weed control at 3000 g/ha: 100%
Lolium mult.; 3.0 kg/ha PRE
  pest or weed control at 3000 g/ha: 100%
Mentha piper.
  pest or weed control at 3000 g/ha: 75%
Sinapis alba; 3.0 kg/ha PRE
  pest or weed control at 3000 g/ha: 90%
Cynodon dact. (seed); appln. rate 2 kg/ha, POST line
  % damage: 100%
Ipom. spp.
  pest or weed control at 3000 g/ha: 100%
Galium apar.
  pest or weed control at 3000 g/ha: 95%

— patent US4259235A, “Tricyclic nitrogenous compounds having string plant growth regulating properties” (BASF Aktiengesellschaft, priority 1977, dated 1981)
